Data published in PubChem BioAssay AID330 (DTP/NCI, 2004).
Several values for one entry are separate records, joined by “and”; a condition that tells them apart may be missing. Identical values can stand only once. Toxic doses and inconclusive results are not listed.

Test system: P388 leukemia ip, CD2F1 mice, survival T/C
Experiment: NCI In Vivo Anticancer Drug Screen. Data for tumor model P388 Leukemia (intraperitoneal) in CD2F1 (CDF1) mice
Conditions: endpoint: median survival time, higher = longer survival
Summary of the method: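 Mice carrying the transplanted tumor received test compound or vehicle. Survival was recorded in each group, and the value is the treated-group measurement divided by that of the vehicle-treated control group.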

[1] = dose: 100.0 mg/kg/injection, schedule: Q04DX003 (ip), vehicle: saline with Tween-80
[2] = dose: 200.0 mg/kg/injection, schedule: Q04DX003 (ip), vehicle: saline with Tween-80
[3] = dose: 50.0 mg/kg/injection, schedule: Q01DX005 (ip), vehicle: Klucel (hydroxypropylcellulose) (HPC)
[4] = dose: 100.0 mg/kg/injection, schedule: Q01DX005 (ip), vehicle: Klucel (hydroxypropylcellulose) (HPC)
[5] = dose: 12.5 mg/kg/injection, schedule: Q01DX009 (ip), vehicle: saline with Tween-80
[6] = dose: 50.0 mg/kg/injection, schedule: Q01DX009 (ip), vehicle: saline with Tween-80
[7] = dose: 50.0 mg/kg/injection, schedule: Q01DX005 (ip), vehicle: saline with Tween-80
[8] = dose: 100.0 mg/kg/injection, schedule: Q01DX005 (ip), vehicle: saline with Tween-80
[9] = dose: 200.0 mg/kg/injection, schedule: Q01DX005 (ip), vehicle: saline with Tween-80
[10] = dose: 25.0 mg/kg/injection, schedule: Q01DX005 (ip), vehicle: Klucel (hydroxypropylcellulose) (HPC)
[11] = dose: 25.0 mg/kg/injection, schedule: Q01DX009 (ip), vehicle: saline with Tween-80
[12] = dose: 100.0 mg/kg/injection, schedule: Q01DX009 (ip), vehicle: saline with Tween-80
[13] = dose: 200.0 mg/kg/injection, schedule: Q01DX009 (ip), vehicle: saline with Tween-80
[14] = dose: 400.0 mg/kg/injection, schedule: Q01DX009 (ip), vehicle: saline with Tween-80
[15] = dose: 100.0 mg/kg/injection, schedule: Q04DX002 (ip), vehicle: saline with Tween-80
[16] = dose: 50.0 mg/kg/injection, schedule: Q01DX009 (ip), vehicle: saline

Cc1ccc(C(=Nc2ccccc2)N=S(c2ccccc2)c2ccccc2)cc1 was tested, and the T/C (dose: 50.0 mg/kg/injection, schedule: Q04DX003 (ip), vehicle: saline with Tween-80) was 97 % of control, the T/C [1] was 92 % of control and the T/C [2] was 97 % of control.
With CC(C(=O)O)S(=O)(=O)C(C)C(=O)O (stereo unspecified) the T/C (dose: 100.0 mg/kg/injection, schedule: Q04DX002 (ip), vehicle: saline) was 98 % of control and the T/C (dose: 200.0 mg/kg/injection, schedule: Q04DX002 (ip), vehicle: saline) was 91 % of control.
With CC(=O)N(CC1CNc2nc(N)[nH]c(=O)c2N1)c1ccc(C(=O)NC(CCC(=O)O)C(=O)O)cc1 (stereo unspecified) the T/C (dose: 50.0 mg/kg/injection, schedule: Q04DX003 (ip), vehicle: saline) was 98 % of control, the T/C (dose: 100.0 mg/kg/injection, schedule: Q04DX003 (ip), vehicle: saline) was 102 % of control and the T/C (dose: 200.0 mg/kg/injection, schedule: Q04DX003 (ip), vehicle: saline) was 95 % of control.
For CCc1nc(N)nc(N)c1-c1ccc2c(c1)nnn2C, the T/C [3] was 104 % of control, the T/C [4] was 104 % of control and the T/C (dose: 200.0 mg/kg/injection, schedule: Q01DX005 (ip), vehicle: Klucel (hydroxypropylcellulose) (HPC)) was 95 % of control.
In the case of CC(C)(C)[Si](C)(C)OCc1ccccc1N1C(=O)C(N=[N+]=[N-])C1/C=C/c1ccccc1 (stereo unspecified), the T/C (dose: 6.25 mg/kg/injection, schedule: Q01DX001 (ip), vehicle: Klucel (hydroxypropylcellulose) (HPC)) is reported as 101 % of control, the T/C (dose: 12.5 mg/kg/injection, schedule: Q01DX001 (ip), vehicle: Klucel (hydroxypropylcellulose) (HPC)) is reported as 103 % of control and the T/C (dose: 25.0 mg/kg/injection, schedule: Q01DX001 (ip), vehicle: Klucel (hydroxypropylcellulose) (HPC)) is reported as 94 % of control. For the same compound, the T/C (dose: 50.0 mg/kg/injection, schedule: Q01DX001 (ip), vehicle: Klucel (hydroxypropylcellulose) (HPC)) was 101 % of control, the T/C (dose: 100.0 mg/kg/injection, schedule: Q01DX001 (ip), vehicle: Klucel (hydroxypropylcellulose) (HPC)) was 98 % of control and the T/C (dose: 400.0 mg/kg/injection, schedule: Q01DX001 (ip), vehicle: saline with Tween-80) was 89 % of control.
O=C(Nc1ccc(F)cc1)NN1CCOCC1 was tested, and the T/C (dose: 60.0 mg/kg/injection, schedule: Q01DX005 (ip), vehicle: saline with Tween-80) was 102 % of control, the T/C (dose: 120.0 mg/kg/injection, schedule: Q01DX005 (ip), vehicle: saline with Tween-80) was 104 % of control and the T/C (dose: 240.0 mg/kg/injection, schedule: Q01DX005 (ip), vehicle: saline with Tween-80) was 103 % of control.
For COc1cc2c(cc1OC)CN1CSc3cc(OC)c(OC)cc3C1C2 (stereo unspecified), the T/C (dose: 100.0 mg/kg/injection, schedule: Q01DX001 (ip), vehicle: saline with Tween-80) was 92 % of control and the T/C (dose: 200.0 mg/kg/injection, schedule: Q01DX001 (ip), vehicle: saline with Tween-80) was 92 % of control.
In the case of CCOC(=O)/C=C(\C)Sc1cc(O)c2ccccc2c1O, the T/C [5] is reported as 119 % of control and the T/C [6] is reported as 108 % of control.
In the case of Cc1cc(=O)n(-c2ccc(S(=O)(=O)Nc3nccs3)cc2)c(C)c1C(=O)O, the T/C [7] is reported as 103 % of control, the T/C [8] is reported as 98 % of control and the T/C [9] is reported as 100 % of control.
With CC1=C(O[Si](C)(C)C)CCC1=O the T/C [7] was 113 % of control, the T/C [8] was 105 % of control and the T/C [9] was 106 % of control.
COC(=O)NC1=Nc2ccc(Cl)cc2NS1 was tested, and the T/C (dose: 12.5 mg/kg/injection, schedule: Q01DX005 (ip), vehicle: Klucel (hydroxypropylcellulose) (HPC)) was 102 % of control, the T/C [10] was 100 % of control and the T/C [3] was 112 % of control and 97 % of control.
O=C1CCCSc2ccccc21 was tested, and the T/C [11] was 100 % of control, the T/C [6] was 94 % of control and the T/C [12] was 102 % of control. For the same compound, the T/C [13] was 106 % of control.
In the case of COc1ccc(/C=N/NC(N)=S)cc1, the T/C [12] is reported as 109 % of control, the T/C [1] is reported as 100 % of control and the T/C [13] is reported as 100 % of control. The T/C [2] was 113 % of control, the T/C [14] was 109 % of control and the T/C (dose: 400.0 mg/kg/injection, schedule: Q04DX003 (ip), vehicle: saline with Tween-80) was 109 % of control.
For CCOC(=O)CCCn1nc(-c2ccc(Cl)cc2)c(-c2ccc(Cl)cc2)c(C#N)c1=O, the T/C [15] was 123 % of control.
N#CC(c1ccccc1)C(CC(=O)c1ccccc1)c1ccccc1 (stereo unspecified) was tested, and the T/C [12] was 86 % of control, the T/C [13] was 95 % of control and the T/C [14] was 95 % of control.
In the case of CC1(C)N=C(N)N=C(N)N1c1ccc(CCC(=O)Nc2ccc(S(=O)(=O)F)cc2)cc1, the T/C (dose: 4.4 mg/kg/injection, schedule: Q01DX009 (ip), vehicle: saline with Tween-80) is reported as 155 % of control, the T/C (dose: 6.6 mg/kg/injection, schedule: Q01DX009 (ip), vehicle: saline with Tween-80) is reported as 150 % of control and the T/C (dose: 10.0 mg/kg/injection, schedule: Q01DX009 (ip), vehicle: saline with Tween-80) is reported as 160 % of control. For the same compound, the T/C [5] was 169 % of control, the T/C [11] was 180 % of control and the T/C (dose: 44.0 mg/kg/injection, schedule: Q01DX009 (ip), vehicle: saline with Tween-80) was 168 % of control. The T/C [6] was 177 % of control, the T/C [16] was 93 % of control and the T/C (dose: 66.0 mg/kg/injection, schedule: Q01DX009 (ip), vehicle: saline with Tween-80) was 177 % of control.
With CN1c2ccccc2SC1(C)CCC(=O)O (stereo unspecified) the T/C (dose: 60.0 mg/kg/injection, schedule: Q01DX005 (ip), vehicle: Klucel (hydroxypropylcellulose) (HPC)) was 105 % of control and the T/C (dose: 120.0 mg/kg/injection, schedule: Q01DX005 (ip), vehicle: Klucel (hydroxypropylcellulose) (HPC)) was 104 % of control.
With Cc1ccc(C2(c3ccccc3)OC(=O)c3ccccc32)cc1 (stereo unspecified) the T/C (dose: 200.0 mg/kg/injection, schedule: Q01DX009 (ip), vehicle: saline sonified) was 95 % of control.
In the case of Cc1ccnc(NS(=O)(=O)c2ccc(N=CC3C(=O)N(c4ccccc4)N(c4ccccc4)C3=O)cc2)n1, the T/C (dose: 50.0 mg/kg/injection, schedule: Q01DX009 (ip), vehicle: Klucel (hydroxypropylcellulose) (HPC)) is reported as 96 % of control and the T/C (dose: 200.0 mg/kg/injection, schedule: Q01DX009 (ip), vehicle: Klucel (hydroxypropylcellulose) (HPC)) is reported as 101 % of control.
In the case of Cc1c(C)c(N(CCCl)CCCl)c(C)c2c1OC(C)(CCCC(C)CCCC(C)CCCC(C)C)CC2 (stereo unspecified), the T/C [15] is reported as 113 % of control, the T/C (dose: 200.0 mg/kg/injection, schedule: Q04DX002 (ip), vehicle: saline with Tween-80) is reported as 113 % of control and the T/C (dose: 400.0 mg/kg/injection, schedule: Q04DX002 (ip), vehicle: saline with Tween-80) is reported as 115 % of control.
N=C(N)SCc1cccc(-c2nc3ccccc3c(=O)o2)c1 was tested, and the T/C [16] was 102 % of control and the T/C (dose: 100.0 mg/kg/injection, schedule: Q01DX009 (ip), vehicle: saline) was 113 % of control.
With C=CCCN1CC2CC(C1)N1CCCCC1C2=O (stereo unspecified) the T/C (dose: 5.25 mg/kg/injection, schedule: Q01DX005 (ip), vehicle: Klucel (hydroxypropylcellulose) (HPC)) was 102 % of control, the T/C (dose: 10.5 mg/kg/injection, schedule: Q01DX005 (ip), vehicle: Klucel (hydroxypropylcellulose) (HPC)) was 103 % of control and the T/C (dose: 21.0 mg/kg/injection, schedule: Q01DX005 (ip), vehicle: Klucel (hydroxypropylcellulose) (HPC)) was 100 % of control. The T/C (dose: 42.0 mg/kg/injection, schedule: Q01DX005 (ip), vehicle: Klucel (hydroxypropylcellulose) (HPC)) was 103 % of control.
In the case of O=C(N=[N+]([O-])c1ccccc1)c1ccccc1, the T/C (dose: 3.12 mg/kg/injection, schedule: Q01DX001 (ip), vehicle: saline with Tween-80) is reported as 107 % of control, the T/C (dose: 6.25 mg/kg/injection, schedule: Q01DX001 (ip), vehicle: saline with Tween-80) is reported as 110 % of control and the T/C (dose: 6.25 mg/kg/injection, schedule: Q04DX003 (ip), vehicle: saline with Tween-80) is reported as 109 % of control and 118 % of control. The T/C (dose: 12.5 mg/kg/injection, schedule: Q01DX001 (ip), vehicle: saline with Tween-80) was 99 % of control, the T/C (dose: 12.5 mg/kg/injection, schedule: Q04DX003 (ip), vehicle: saline with Tween-80) was 114 % of control and 117 % of control and the T/C (dose: 25.0 mg/kg/injection, schedule: Q04DX003 (ip), vehicle: saline with Tween-80) was 89 % of control and 95 % of control.
With CC(=O)CCCCCCCCCCCCCCC1=C(C)C(=O)OC1=O the T/C [10] was 103 % of control, the T/C [3] was 99 % of control and the T/C [4] was 89 % of control. For the same compound, the T/C (dose: 400.0 mg/kg/injection, schedule: Q01DX005 (ip), vehicle: Klucel (hydroxypropylcellulose) (HPC)) was 96 % of control.
For CN1C(=O)C(=N[O-])C(=O)N(C)C1=O.CN1C(=O)C(=N[O-])C(=O)N(C)C1=O.CN1C(=O)C(=N[O-])C(=O)N(C)C1=O.[Co+3], the T/C [7] was 100 % of control, the T/C [8] was 119 % of control and the T/C [9] was 107 % of control.
In the case of CN1CCC(O)(c2ccccc2)C(O)C1 (stereo unspecified), the T/C [7] is reported as 95 % of control, the T/C [8] is reported as 93 % of control and the T/C [9] is reported as 90 % of control.
